Experimental findings from patent US9902713B2, “Neuroprotective compounds and use thereof” (BOARD OF REGENTS OF THE UNIVERSITY OF TEXAS SYSTEM, priority 2013, dated 2018) are described below.

pIC50: −log10 of the molar value.

Broadly, the pIC50 is the negative decadic logarithm of the IC50, by convention in mol/L. The low end stands for a high IC50, the high end for a low IC50.

Test [1] deals with cultured cortical neurons. Nature of the test: MPP+ toxicity in cultured neurons (MTT). Conditions: 10 μM compound, 10 μM MPP+, 24 hrs. It counts as cell-based. The protocol:
FIGS. 35A-35B show P7C3-S243 and P7C3-A20 protect cultured hippocampal and cortical neurons from MPP^+ toxicity. […] Experiments were performed 2 independent times with 8-12 replicates of each sample both times.

The test system of a further test is H2009. Briefly: Toxicity towards human cancer cell line. It counts as cell-based. Conditions: NCI-H2009.
Another test addresses CYP1A2 (Homo sapiens, UniProt P05177). Briefly: Cytochrome P450 inhibition.
The test system of test [2] is intracellular levels of NAD. Nature of the test: Intracellular NAD levels by mass spectrometry. It is filed as cell-based. The following applies: 3 uM, 12 hrs. The text has this:
Cultured cells were exposed to varying levels of “A20” (X-axis) for 12 hrs. Intracellular levels of NAD (Y-axis) were monitored by mass spectrometry.

Chain of CYP1A2 (P05177 whole entry): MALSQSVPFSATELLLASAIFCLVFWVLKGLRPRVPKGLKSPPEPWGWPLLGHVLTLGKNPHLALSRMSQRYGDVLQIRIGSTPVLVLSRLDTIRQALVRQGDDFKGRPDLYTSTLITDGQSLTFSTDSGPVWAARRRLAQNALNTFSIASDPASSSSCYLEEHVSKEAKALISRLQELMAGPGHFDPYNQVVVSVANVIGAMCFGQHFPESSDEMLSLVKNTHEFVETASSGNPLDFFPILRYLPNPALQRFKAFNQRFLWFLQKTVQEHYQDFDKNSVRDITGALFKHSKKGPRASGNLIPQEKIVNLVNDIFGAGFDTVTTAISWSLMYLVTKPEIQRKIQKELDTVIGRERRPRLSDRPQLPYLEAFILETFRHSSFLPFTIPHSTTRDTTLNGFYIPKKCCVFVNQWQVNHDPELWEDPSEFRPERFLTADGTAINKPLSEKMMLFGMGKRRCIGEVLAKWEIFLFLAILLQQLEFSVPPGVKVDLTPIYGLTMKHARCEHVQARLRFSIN

In the case of `COc1cccc(NCC(F)Cn2c3ccc(Br)cc3c3cc(Br)ccc32)n1` (racemic) [P7C3-S243, N-(3-(3,6-dibromo-9H-carbazol-9-yl)-2-fluoropropyl)-6-methoxypyridin-2-amine], in test [1], the “protection (MTT)” value was “significant protection”. As for `COc1cccc(NCC(F)Cn2c3ccc(Br)cc3c3cc(Br)ccc32)n1` (single isomer, unassigned; (-)) [(−)-P7C3-S243, (−)-N-(3-(3,6-dibromo-9H-carbazol-9-yl)-2-fluoropropyl)-6-methoxypyridin-2-amine], the pIC50 is less than 5.00 in the test on H2009 and 4.70 against CYP1A2. Regarding `COc1cccc(NCC(F)Cn2c3ccc(Br)cc3c3cc(Br)ccc32)c1` (stereo not shown) [P7C3-A20, N-(3-(3,6-dibromo-9H-carbazol-9-yl)-2-fluoropropyl)-3-methoxyaniline], the “maximal enhancement of NAD” value in test [2] is 20-30%.
